Source: patent EP0923292B1, “IMPROVED METHOD FOR SYSTEMIC ADMINISTRATION OF 2,4-DIENOIC ACID-TYPE INSECTICIDES TO TERRESTRIAL MAMMALS” (priority 1996, dated 1998)
Like-named read-outs stand apart in the source and are kept apart here.

Assays:
[1] = Methoprene blood concentrations in dogs following a single oral dose (gas chromatography); assay type: in vivo; conditions: single oral dose 50 mg/kg
Protocol: Six healthy mixed breed dogs, three male and three female, of weight ranging from 14 to 22 kg per dog and ages ranging from 2 to 5 years, were utilized. For each dog, a gelatin capsule containing a measured volume of (S)-methoprene was prepared, based on the dog's weight to yield a dose of 50 mg/kg of the dog's body weight in a single gelatin capsule for each dog. The dogs were fasted 24 hours before administration of their individual capsules, and dosing was achieved by placing the capsule in the back of each dog's throat and causing the dog to swallow. Food was then withheld for an additional 8 hours, although water was always available, and the dogs were fed once the following morning.
At each sampling time, 50 mL of blood was collected from the femoral vein of each dog into two 25-mL syringes. Samples were taken seven days prior to dosing (to establish a baseline), followed by three hours, 1 day, 2 days, 4 days, and 7 days after dosing.
To prepare the blood samples for methoprene content determinations, each 25-mL blood sample was mixed with 200 mL acetonitrile, 25 g anhydrous Na2SO4, and 10 g CELITE® in a blender for three one-minute segments, allowing the blender blades to cool for thirty seconds between segments. The mixture was then vacuum filtered, including a wash with 50 mL acetonitrile. The filtrate was extracted with petroleum ether for one minute, then diluted with 700 mL deionized water. To this was added 50 g NaCI and the solution was acidified to pH 2 with 0.5 N HCl. The aqueous phase was then discarded, and the petroleum ether phase was washed twice with 600 mL of deionized water. The petroleum ether was then filtered through a glass wool plug topped with 50 g Na2SO4. The Na2SO4 was then rinsed with 15 mL petroleum ether, and the extractant concentrated to 10 mL in a rotary evaporator, using a bath temperature of 30°C. The concentrated extractant was then stored in a refrigerator until the next step in the analysis.
Extraction columns were prepared by heat activating FLORISIL® (magnesium silicate absorbent) at 200°C for 24 hours, then allowing the FLORISIL to cool for 45 minutes, adding 5 mL of distilled water per 50 g of FLORISIL, shaking the mixture, and allowing it to equilibrate for 3 hours. A glass column with 28 mm intemal diameter was plugged with glass wool and filled with petroleum ether. A 1-cm layer of Na2SO4 was slowly poured into the column, followed by 6.5 cm of FLORISIL and 1.5 cm of Na2SO4. The petroleum ether was then drained until it reached the layer of Na2SO4. The extractant from the preceding paragraph was then loaded into the top of the column with a glass pipette, and its content rinsed with petroleum ether and added to the column. The column was then drained until the solvent layer was above the Na2SO4, and the eluant was discarded. Elution was then performed with 1 L of 5% diethyl ether/petroleum ether for each sample, and fractions of 175 mL and 825 mL were collected. The 825 mL fraction was then evaporated to 5 mL and stored in a refrigerator.
To prepare the 825 mL fraction for gas chromatography, one mL of internal standard was added to the sample, and the sample volume was evaporated to approximately 0.3 mL with nitrogen. Two aliquots of 5 µL each were injected on a gas chromatograph (Perkin Elmer, Sigma 300, with hydrogen flame ionization detector and data system) equipped with a 6-foot-by 1/4-inch glass column with 3% OV-101 Chrom W HP 100/120 mesh packing, using nitrogen at 60 mUmin as the carrier gas, and injector, column and detector temperatures of 300°C, 166°C, and 280°C, respectively.

adult cat fleas = test: Flea ovicidal activity in vitro: artificial feeding system with treated beef blood (Examples 4 and 6); parameters: species or system C. felis; conditions: Ctenocephalides felis; for inhibition at 0.05 ppm: 0.05 ppm in beef blood; for inhibition at 0.075 ppm: 0.075 ppm in beef blood; for inhibition at 0.1 ppm: 0.1 ppm in beef blood; for inhibition at 0.25 ppm: 0.25 ppm in beef blood; for inhibition at 0.5 ppm: 0.5 ppm in beef blood
Source text: For the in vitro tests, an artificial feeding system with cages for adult cat fleas C. felis was used as described by Wade, S.E., et al., J. Med. Ent. 25(3): 186-190 (May 1988). Inside each cage were placed 100 one-week-old, unfed adult C. fells. Each cage included a container for treated blood separated from the fleas by a PARAFILM® membrane, and a compartment containing thin strips of paper to support loosely arranged clean dog hair and to provide a foothold for the fleas as they fed on the blood through the membrane.
The artificial feeding system and cages for adult cat fleas described in Example 3 were used. Beef blood was used for the feeding system, and was prepared by adding 35 mL of a 20% sodium citrate solution per liter of blood to prevent clotting. A stock solution of lufenuron was prepared by adding 50.1 mg of technical lufenuron to 4.951 g of dimethyl sulfoxide (DMSO) to yield a 1.0% solution. A 1,000 ppm solution was then prepared by diluting 1.0 mL of the 1.0% solution in 9.0 mL of DMSO, and a 100 ppm solution was prepared by diluting 1.0 mL of the 1,000 ppm solution in 9.0 mL of DMSO. Dimethyl sulfoxide itself was used as a control. To treat the blood, the various solutions (0.05 mL) were added to the citrated beef blood (100.0 mL) to yield beef blood solutions containing 5.0 ppm, 0.5 ppm, 0.05 ppm, and 0.00 (zero) ppm lufenuron. Each solution was mixed thoroughly, and 10 mL at each concentration were placed in each of five feeders in the artificial feeding system to serve as replicates. Each day fresh blood solutions identical to the originals were placed in the feeders.
Flea eggs were collected from each replicate on days 3, 5 and 7. One hundred (100) healthy appearing […] were counted under a dissecting microscope from each replicate, divided into two subsamples per replicate, and placed in 60 mm x 15 mm plastic petri dishes. The samples were incubated at 78°F and 85% relative humidity for three days, then scored for larval hatch using by visual observation through the dissecting microscope. The data from all replicates at each concentration were combined to yield the mean percent egg hatch, and the percent inhibition of egg hatch was calculated relative to the control.
Retuming to (S)-methoprene, this example presents in vitro flea ovicidal activity using beef blood, for comparison with Example 4. Procedures using beef blood were the same as those indicated in the previous examples.

[2] = average over days, read-out: Percent Inhibition of Flea Egg Hatching, averages
[3] = 72 h, day 3, read-out: Percent Inhibition of Flea Egg Hatching
[4] = 120 h, day 5, read-out: Percent Inhibition of Flea Egg Hatching
[5] = 144 h, day 6, read-out: Percent Inhibition of Flea Egg Hatching
[6] = 240 h, day 10, read-out: Percent Inhibition of Flea Egg Hatching

SMILES: COC(C)(C)CCC[C@H](C)C/C=C/C(C)=C/C(=O)OC(C)C [(S)-Methoprene, 1-isopropyl (E,E)-11-methoxy-3,7,11-trimethyl dodecadi-2,4-enoate]
- concentration at 0 h ([1]; both sexes, mixed breed, dog, in vivo, mean of six dogs, 0 hours (baseline, seven days prior to dosing)): 0 ng/mL
- concentration at 3 h ([1]; both sexes, mixed breed, dog, in vivo, mean of six dogs, 3 hours): 547 ng/mL
- concentration at 24 h ([1]; both sexes, mixed breed, dog, in vivo, mean of six dogs, 24 hours): 85 ng/mL
- concentration at 48 h ([1]; both sexes, mixed breed, dog, in vivo, mean of six dogs, 48 hours): 104 ng/mL
- time by which methoprene level fell below detectable amounts ([1]; remaining four of the six dogs): ≤ 96 h
- time (S)-methoprene remains in the dogs' blood [1]: 48 to 96 h
- time by which methoprene level fell below detectable amounts ([1]; two of the six dogs): ≤ 48 h
- inhibition at 0.05 ppm (adult cat fleas; [2]): 56.4%
- inhibition at 0.075 ppm (adult cat fleas; average of a and b, read-out: Percent Inhibition of Flea Egg Hatching, averages): 72%
- inhibition at 0.1 ppm (adult cat fleas; [2]): 96.6%
- inhibition at 0.25 ppm (adult cat fleas; [2]): 99.5%
- inhibition at 0.5 ppm (adult cat fleas; [2]): 99.8%
- inhibition at 0.05 ppm (adult cat fleas; [3]): 47.3%
- inhibition at 0.5 ppm (adult cat fleas; [3]): 99.1%
- inhibition at 0.1 ppm (adult cat fleas; [4]): 97.4%
- inhibition at 0.25 ppm (adult cat fleas; [4]): 100%
- inhibition at 0.1 ppm (adult cat fleas; [5]): 95.7%
- inhibition at 0.25 ppm (adult cat fleas; [5]): 99%
- inhibition at 0.5 ppm (adult cat fleas; 168 h, day 7, read-out: Percent Inhibition of Flea Egg Hatching): 100%
- inhibition at 0.075 ppm (adult cat fleas; 192 h, day 8, entry a, read-out: Percent Inhibition of Flea Egg Hatching): 66%
- inhibition at 0.075 ppm (adult cat fleas; 192 h, day 8, entry b, read-out: Percent Inhibition of Flea Egg Hatching): 78%
- inhibition at 0.05 ppm (adult cat fleas; [6]): 65.4%
- inhibition at 0.5 ppm (adult cat fleas; [6]): 100%
- inhibition at 0.5 ppm (adult cat fleas; 312 h, day 13, read-out: Percent Inhibition of Flea Egg Hatching): 100%
